Series [1] in a line: Krafft point (Kp) determination. The series is classed as physicochemical. To be noted: aqueous dispersion containing 2% by weight, temperature at which it becomes cloudy on cooling. The protocol:
A composition of uniform turbidity can be recognised simply by visual observation of a sample which has been placed in a test tube and allowed to stand for 24 hours at ambient temperature. […] The melting point of particles of softening agent can be determined by placing in a hot stage microscope a sample of composition on a glass slide covered by a glass cover slip and observing the temperature at which melting of the particle occurs as a change in shape of the particles indicating deformation of liquid droplets when the cover slip is moved over the slide. The Krafft point (Kp) of the quaternary ammonium chloride can be determined by heating an aqueous dispersion containing 2% by weight of it to a temperature at which a transparent solution is obtained, cooling it, and observing the temperature at which it becomes cloudy. The clear point of the composition can be determined by heating a sample to 95° C.: lack of optical clarity at this temperature is taken as showing that the clear point is above 95° C.

A short description of series [2]: Effective normality ratio range of quaternary ammonium salt to anionic surfactant for stable dispersions. The format is physicochemical. An excerpt: The ranges of figures in the table are the ranges of normality ratios expressed as quaternary ammonium salt to 1 of anionic surfactant.
There is no specific disclosure of the preparation of aqueous liquid concentrates in these prior publications of stable dispersions containing positively charged particles of quaternary ammonium softeners with single long-chain groups, and to prepare these it is necessary both to select a normality ratio within the operative range for the particular quaternary ammonium salt and anionic surfactant concerned and to employ a method of formulation which gives a homogeneous liquid phase before generating the complex-containing softener particles.

Where “and” joins values, the source holds several entries; their conditions need not be identical. Identical values can stand only once.

In the case of `CCCCCCCCCCCCCCCCCCCCCC(=O)NCCC[N+](C)(C)C.[Cl-]` [behenoylaminopropyl trimethylammonium chloride], in series [1], the “Krafft point (Kp)” value is 60 °C.

For `CCCCCCCCCCCCCCCC[N+](C)(C)Cc1ccccc1.[Cl-]` [cetylbenzyldimethylammonium chloride], the “Krafft point (Kp)” value in series [1] stood at 16 °C.

For the molecule `CCCCCCCCCCCCCCCCCC[N+](C)(C)C.[Cl-]` [stearyltrimethylammonium chloride], the “Krafft point (Kp)” value in series [1] was 11 °C. In addition, the “effective normality ratio range, quaternary ammonium salt to 1 of anionic surfactant” value is given as 1.4-1.8 in series [2] (anionic surfactant: Sodium C15-C18 olefin sulphonate), 1.5-3.0 in series [2] (anionic surfactant: Sodium linear C10-C15 alkylbenzene sulphonate), 1.3-2.0 in series [2] (anionic surfactant: Sodium random secondary C13-C17 alkane sulphonate) and 1.1-1.6 in series [2] (anionic surfactant: Sodium soap of tallow fatty acids).

In the case of `CCCCCCCCCCCCCCCCCCCCCC(=O)OCC(O)C[N+](C)(C)C.[Cl-]` (stereo not shown) [3-behenoyloxy-2-hydroxypropyl trimethylammonium chloride], the “Krafft point (Kp)” value in series [1] was 54 °C and 58 °C; in series [1] (listed as behenoyl-hydroxypropyltrimethylammonium chloride of Preparation I) it was 58 °C. Further, the “effective normality ratio range, quaternary ammonium salt to 1 of anionic surfactant” value in series [2] (anionic surfactant: Sodium stearate) was 1.2-3.0.

For the origin of these results see patent US4173539A, “Cationic surfactant compositions” (Lever Brothers Company, priority 1977, dated 1979).
